According to the METLIN SMRT retention time set (Domingo-Almenara et al. 2019):

Assay: gradient 5% acetonitrile 3 min, to 50% in 2 min, to 85% in 15 min, held 3 min, 100 µL/min
Settings: column: Zorbax Extend-C18 2.1 x 50 mm; eluents: water / acetonitrile, 0.1% formic acid
How it was run: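 Standards, all pure, were combined into mixtures of ~100 molecules and run at 100 μL/min on a Zorbax Extend-C18 column (2.1 × 50 mm, 1.8 μm) with water and acetonitrile, each containing 0.1% formic acid. A coupled quadrupole time-of-flight mass spectrometer operated in positive and negative ionization mode. Retention time values come from computationally picked adduct peaks, each inspected manually.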

Row | SMILES | RP-LC retention time [s]
1 | CCN1C(=O)CCc2cc(NS(=O)(=O)c3ccc(C)c(F)c3)ccc21 | 800
2 | O=C(Nc1nc(C(=O)N2CCN(c3ccccn3)CC2)co1)c1cnccn1 | 517
3 | Cc1nn(-c2ccccc2)cc1C(=O)N1CCC(CC(=O)NCCc2c[nH]c3ccccc23)CC1 | 751
4 | CCn1c(=O)n(Cc2ccccn2)c(=O)c2cnc(-c3ccc(OC)cc3)nc21 | 880
5 | Cc1[nH]c2ccc(F)cc2c1CCNS(=O)(=O)c1ccc(F)cc1 | 865
6 | Cc1cc(C)n(-c2ccc(N3CCN(C(=O)COc4ncccn4)CC3)nn2)n1 | 596
7 | CC1=C(C(=O)N(CC(=O)NCCc2ccccc2)c2ccc(Cl)cc2)SCCO1 | 956
8 | COC(=O)c1ncn2c1C(=O)N(c1cccc(C)c1)C(C)(C(=O)NCc1ccc(C)cc1)C2 (centres undefined) | 734
9 | Cc1nc(-c2cc(S(=O)(=O)Nc3cccc(Br)c3)c(C)s2)cs1 | 1050
10 | O=C(CN1C(=O)CCCc2cc(S(=O)(=O)N3CCCCC3)ccc21)N1CCc2ccccc2C1 | 922
11 | O=C(CCCN1CCC2(CC1)C(=O)N(Cc1cccc(F)c1)CN2c1ccccc1)c1ccc(F)cc1 | 981
12 | CC(C)C(=O)Nc1ccc2ncnc(N3CCCC3)c2c1 | 591
13 | CCOC(=O)c1nc(Nc2ccccc2OCC)c2ccccc2n1 | 942
14 | CCc1ccc(S(=O)(=O)N2CCC3(CC2)C(=O)N(CC)c2ccccc23)cc1 | 1140
15 | O=C(Cn1nc2n(c1=O)CCCC2)NCCCc1ccccc1 | 709
16 | O=c1n(Cc2ccc3c(c2)OCO3)nc2c(S(=O)(=O)N3CCOCC3)cccn12 | 736
17 | COc1cc(C(=O)Nc2nc(-c3ccc4c(c3)NC(=O)C(C)O4)cs2)cc(OC)c1OC (centres undefined) | 903
18 | Cc1ccc2c(C(=O)O)cc(NC(=O)C(C)C)cc2n1 | 563
19 | CN(Cc1cccnc1Oc1ccccc1)C(=O)c1cccn1C | 781
20 | CNC(=O)N1c2ccccc2CC1c1nc(C(C)C)no1 (centres undefined) | 799
21 | Cc1ccc(S(=O)(=O)c2cnc(N3CCc4ccccc4C3)nc2N)cc1C | 1150
22 | Cc1cccc(C)c1Nc1c(-c2c(F)cccc2Cl)nc2cnccn12 | 866
23 | COc1ccc(-c2nnc(N3CCC(C(=O)N4CCN(c5ccccc5)CC4)CC3)o2)cc1 | 859
24 | CC(C)NC(=O)CC1CCN(C(=O)c2cc3cc(Cl)ccc3[nH]2)CC1 | 773
25 | CS(=O)(=O)N1CCCCC1c1nncn1Cc1ccccc1 (centres undefined) | 691
26 | CCOc1ccccc1NC(=O)N(C)CCc1noc(COc2ccccc2)n1 | 977
27 | CCN(CC)CCNC(=O)c1sc2ncn(CC(=O)N3CC(C)CC(C)C3)c(=O)c2c1C (centres undefined) | 658
28 | CCOc1ccccc1C1C(C#N)=C(N)Oc2cc(C)n(CCN(C)C)c(=O)c21 (centres undefined) | 597

Row | SMILES | RP-LC retention time [s]
29 | CCn1ccc2sc(C)c(C(=O)NCCCN3CCCC3=O)c2c1=O | 594
30 | CCc1cccc(NS(=O)(=O)c2cc3n(c2)CCN(CC)C3=O)c1 | 762
31 | CCOC(=O)C1CCN(C(=O)c2nc(N(CC)CC)c3c(C)cc(C)nc3n2)CC1 | 657
32 | CN1C(=O)[C@H]2CN(Cc3cccc(OC(F)(F)F)c3)C[C@H]2C1=O | 682
33 | COc1cccc(CCN2CC(=O)N(c3ccc(C)c(C)c3)[C@@H]3CS(=O)(=O)C[C@@H]32)c1 | 872
34 | Cn1c(=O)c2c(-c3cccc(Br)c3)n(Cc3ccco3)cc2n(C)c1=O | 971
35 | CO/N=C1/C=C(C)C(=O)C(C)=C1C | 1040
36 | CC(CCc1ccccc1)NC(=O)CCc1c(-c2ccc(Cl)cc2)nc2ccccn12 (centres undefined) | 774
37 | Cc1cc(N2CCOCC2)nc(N2CCN(C(=O)c3ccccc3Br)CC2)n1 | 612
38 | Cn1c(NC(=O)c2ccc(N3C(=O)CCC3=O)cc2)cc(=O)n(C)c1=O | 565
39 | CCCn1c(-c2cccc(C(=O)NC(C)c3ccccc3)c2)nc2cccnc21 (centres undefined) | 824
40 | O=C(CSc1nnc(Cc2ccccc2)o1)N1CCOCC1 | 636
41 | COCCN1C(=O)CCc2cc(NS(=O)(=O)c3ccccc3Cl)ccc21 | 771
42 | Cc1ccc(C)c(NC(=O)Cn2nc3c(Oc4ccccc4C)nccn3c2=O)c1 | 908
43 | CC(NC(=O)c1cc(-c2ccccc2)cn1C)c1ccccn1 (centres undefined) | 703
44 | Cc1ccc(N2CCN(c3nccn4c(=O)n(CC(=O)Nc5ccc(C)c(Cl)c5)nc34)CC2)cc1 | 1060
45 | O=C(O)CSc1ccc(NC(=O)Nc2ccccc2F)cc1 | 842
46 | CCOC(=O)N1CCN(c2ccc(C(F)(F)F)cc2[N+](=O)[O-])CC1 | 967
47 | CCCCN1CC(c2nc3ccccc3n2CC(=O)N(C)c2ccccc2)CC1=O (centres undefined) | 700
48 | CC(CCNC(=O)CN1C(=O)CCn2nc(-c3cn(C)c4ccccc34)cc21)N1CCCC1 (centres undefined) | 616
49 | Cc1ccc(NS(=O)(=O)c2cc3n(c2)CCCNC3=O)c(F)c1 | 663
50 | CC(=O)c1ccc(N(C(C)=O)S(=O)(=O)c2ccc(Cl)cc2)cc1 | 841
51 | Cc1cc(C)cc(NC(=O)C2CCN(S(=O)(=O)c3cc(C(=O)N4CCOCC4)cs3)CC2)c1 | 760
52 | CS(=O)(=O)N(Cc1cccnc1)C1CN(C(=O)Nc2ccc3c(c2)OCCO3)C1 | 551
53 | CCOC(=O)c1cccc(N2C=C(C#N)S(=O)(=O)c3ccccc32)c1 | 898
54 | Cc1cccc(-c2nc(N3CC4(C)CC3CC(C)(C)C4)c3ccccc3n2)c1 (centres undefined) | 1060
55 | Cn1cnc([N+](=O)[O-])c1Sc1ncn[nH]1 | 626

Results, then the compound that gave them:

Row | RP-LC retention time [s] | SMILES
56 | 952 | Cc1cc(-c2nnc(-c3ccccc3)o2)c(C)n1CC(=O)Nc1ccccc1F
57 | 895 | O=C(CN1C(=O)NC(c2ccc(Cl)cc2)C2=C1COC2=O)Nc1ccc(C(F)(F)F)cc1 (centres undefined)
58 | 858 | CCOCCCNC(=O)C1CCN(C2=NS(=O)(=O)C(c3ccc(C(C)C)cc3)=C2C)CC1
59 | 653 | O=C(CCc1c(-c2ccc(F)cc2)nc2ccccn12)Nc1ccccc1F
60 | 959 | O=C(Cn1cc(-c2nc(-c3ccc(Cl)cc3)no2)ccc1=O)N1CCCC1
61 | 1110 | CCCn1c(=O)c(C)nc2cc(-c3noc(-c4cc(OC)c(OC)c(OC)c4)n3)ccc21
62 | 866 | COc1ccc(C(C)NC(=O)Cn2c(C)cc(-c3nnc(C4CCC4)o3)c2C)cc1 (centres undefined)
63 | 990 | Cc1noc(-c2nc(-c3cccc(F)c3)no2)n1
64 | 1160 | Cc1ccc(S(=O)(=O)N2CCC(c3noc(-c4cccc(F)c4)n3)CC2)cc1
65 | 862 | CC1Oc2ccc(-c3csc(NC(=O)c4ccccc4)n3)cc2NC1=O (centres undefined)
66 | 753 | Cc1ccc(C)c(NC(=O)C2CCc3nc(N4CCOCC4)ncc3C2)c1 (centres undefined)
67 | 959 | COc1ccc(N2CC(c3noc(-c4cc(OC)cc(OC)c4)n3)CC2=O)cc1 (centres undefined)
68 | 843 | CCCNC(=O)c1ccc2c(c1)N(C)C(=O)CS2
69 | 700 | Cc1ccn2cc(-c3ccc(NC(=O)c4cc(Br)ccc4Cl)cc3)nc2n1
70 | 734 | CCN1C(=O)c2cc(C(=O)NCc3ccc(F)cc3)nn2CC1(C)C(=O)NC1CCCC1 (centres undefined)
71 | 903 | O=C(NCc1ccc(-c2noc(-c3ccc(F)c(F)c3)n2)s1)C1CC1
72 | 1010 | C=CCN1C(=O)COc2ccc(-c3nc(NC(=O)C(C)(C)C)sc3C)cc21

Row | RP-LC retention time [s] | SMILES
73 | 1040 | N#Cc1cccc(NC(=O)c2cccn2Cc2noc(-c3ccccc3)n2)c1
74 | 572 | COCCCNC(=O)C1CCC(=O)N(c2cc(OC)c(OC)c(OC)c2)C1c1ccc(OC)cc1 (centres undefined)
75 | 603 | CCC(=O)NCc1nc2c(n1CC)CN(C(=O)c1cccc(C(F)(F)F)c1)CC2
76 | 1230 | CCOc1ccc(-c2noc(CN3C(=O)COc4ccc(C(C)(C)C)cc43)n2)cc1OC
77 | 602 | Cc1ccc(CNC(=O)Cn2ccnc2-c2ccnc(N3CCCC3)c2)cc1
78 | 814 | CN(C)S(=O)(=O)c1ccc(-c2nnc(C(=O)NCc3ccc4c(c3)OCO4)o2)cc1
79 | 1040 | C[C@H]1CN(C(=O)c2cc(F)cc(F)c2)C[C@@H]1c1nc(-c2ccccc2)no1
80 | 1070 | O=C(c1cc(Cl)ccc1Cl)N(CCc1cccs1)C1CC1
81 | 1180 | O=C(c1cccs1)N1CC(Oc2cccc(-c3nc(-c4ccccc4)no3)c2)C1
82 | 739 | CNC(=O)c1nc(C(=O)NCc2ccc(C)cc2)cs1
83 | 708 | Cc1cccc(CNC(=O)c2cn3cc(C)ccc3n2)c1
84 | 787 | Cc1cc(C)c(-c2noc(C)n2)c(NC(=O)c2cc(F)cc(F)c2)n1
85 | 580 | CC(CCNC(=O)C1CCN(c2nc3cccnc3s2)CC1)N1CCCC1 (centres undefined)
86 | 930 | CN(Cc1ccccc1)c1ccc(-c2noc(CN3CCSCC3)n2)cn1
87 | 996 | CCOc1ccccc1NC(=O)C1CCN(S(=O)(=O)c2cc(-c3noc(C)n3)cs2)CC1
88 | 853 | CCc1ccc(CNC(=O)C2CCN(C(=O)c3ncn4c3COC(c3ccc(C)cc3)C4)CC2)cc1 (centres undefined)
89 | 1270 | CCc1nc(-c2cccc(-c3noc(COc4ccc(OC)cc4)n3)c2)cs1
